In patent US9833497B2, “Human originated EGF domain proteins and use of the same” (CHENGDU SOURCEBIO LIMITED-LIABILITY COMPANY, priority 2013, dated 2017):

Assays:
Type in all cases: cell-based
[1] = tested on: Aeromonas hydrophila; assay: MIC against Gram-negative bacteria: Aeromonas hydrophila; details: 10 h cultivation at 37° C.; for MIC (μg/mL) A. hydrophila / MIC: A. hydrophila
Method in brief: (§1)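 Purified recombinant human EGF domain proteins are tested by broth dilution in LB against a 5×10^5 CFU/mL inoculum, with two-fold serial dilutions run in triplicate. Plates are incubated at 37° C with shaking, and the MIC is read as the lowest protein concentration without growth.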

[2] = tested on: Moraxella catarrhalis; assay: MIC against Gram-negative bacteria: Moraxella catarrhalis; details: 10 h cultivation at 37° C.; for MIC (μg/mL) M. catarrhalis / MIC: M. catarrhalis
Method in brief: as §1

[3] = tested on: Pseudomonas aeruginosa; assay: MIC against Gram-negative bacteria: Pseudomonas aeruginosa; details: 10 h cultivation at 37° C.; for MIC (μg/mL) P. aeruginosa / MIC: P. aeruginosa
Method in brief: as §1

[4] = tested on: Enterobacter cloacae; assay: MIC against Gram-negative bacteria: Enterobacter cloacae; details: 10 h cultivation at 37° C.; for MIC (μg/mL) E. cloacae / MIC: E. cloacae
Method in brief: as §1

[5] = tested on: Serratia marcescens; assay: MIC against Gram-negative bacteria: Serratia marcescens; details: 10 h cultivation at 37° C.; for MIC (μg/mL) S. marcescens / MIC: S. marcescens
Method in brief: as §1

[6] = tested on: E. coli BL21; assay: MIC against Gram-negative bacteria: E. coli BL21; details: 10 h cultivation at 37° C.
Method in brief: as §1

[7] = tested on: Proteus mirabilis; assay: MIC against Gram-negative bacteria: Proteus mirabilis; details: 10 h cultivation at 37° C.; for MIC (μg/mL) P. mirabilis / MIC: P. mirabilis
Method in brief: as §1

[8] = tested on: Klebsiella pneumonia; assay: MIC against Gram-negative bacteria: Klebsiella pneumonia; details: 10 h cultivation at 37° C.; for MIC (μg/mL) K. pneumonia / MIC: K. pneumonia
Method in brief: as §1

[9] = tested on: Proteus vulgaris; assay: MIC against Gram-negative bacteria: Proteus vulgaris; details: 10 h cultivation at 37° C.; for MIC (μg/mL) P. vulgaris / MIC: P. vulgaris
Method in brief: as §1

[10] = tested on: E. coli DH5α; assay: Antibacterial activity: MIC and growth curve against E. coli DH5α in 96-well plate; details: minimal inhibitory concentration against E. coli DH5α; 96-well plate, 5×10^5 CFU/mL, 37° C., judged after 8 h
Method in brief: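 MIC taken as lowest protein level with no bacterial growth, tracked by A600 every 30 min during 37 °C, 175 rpm culture. Two-fold protein series 50-12.5 μg/mL final, triplicate wells, against 5×10^5 CFU/mL of LB-washed mid-log cells.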

[11] = tested on: Citrobacter diversus; assay: MIC against Gram-negative bacteria: Citrobacter diversus; details: 10 h cultivation at 37° C.; for MIC (μg/mL) C. diversus / MIC: C. diversus
Method in brief: as §1

[12] = 5×10^5 CFU/mL, two-fold serial dilution

Substance | MIC (μg/mL) A. hydrophila ([1]; 5×10^5 CFU/mL) [µg/mL] | MIC (μg/mL) M. catarrhalis ([2]; 5×10^5 CFU/mL) [µg/mL] | MIC (μg/mL) P. aeruginosa ([3]; 5×10^5 CFU/mL) [µg/mL] | MIC (μg/mL) E. cloacae ([4]; 5×10^5 CFU/mL) [µg/mL] | MIC (μg/mL) S. marcescens ([5]; 5×10^5 CFU/mL) [µg/mL] | MIC (μg/mL) E. coli BL21 ([6]; E. coli BL21, 5×10^5 CFU/mL) [µg/mL] | MIC (μg/mL) P. mirabilis ([7]; 5×10^5 CFU/mL) [µg/mL] | MIC (μg/mL) K. pneumonia ([8]; 5×10^5 CFU/mL) [µg/mL] | MIC (μg/mL) P. vulgaris ([9]; 5×10^5 CFU/mL) [µg/mL] | MIC [10] [mg/L] | MIC (μg/mL) C. diversus ([11]; 5×10^5 CFU/mL) [µg/mL] | MIC [1] [mg/L] | MIC [2] [mg/L] | MIC [3] [mg/L] | MIC [4] [mg/L] | MIC [5] [mg/L] | MIC ([6]; E. coli BL21) [mg/L] | MIC [7] [mg/L] | MIC [8] [mg/L] | MIC [9] [mg/L] | also measured
PRT260 (CRAGNGGCHGLATCRAVGGGQRVCTCPPGFGGDGFSC; listed as Homo sapiens) | 25 | 25 | 50 | 12.5 | 12.5 | 25 | 12.5 | 25 | 12.5 | 12.5 | 50 |  |  |  |  |  |  |  |  |  | 
PRT1057 (DIDECEMGVPVCPPASSKCINTEGGYVCRCSEGYQGDGIHCL; listed as Homo sapiens) |  |  |  |  |  |  |  |  |  | 25 |  |  |  |  |  |  |  |  |  |  | MIC A. hydrophila [1, 12]: 50 mg/L; MIC M. catarrhalis [2, 12]: 12.5 mg/L; MIC P. aeruginosa [3, 12]: 25 mg/L; MIC E. cloacae [4, 12]: 25 mg/L; MIC S. marcescens [5, 12]: 25 mg/L; MIC E. coli BL21 [6, 12]: 50 mg/L; MIC P. mirabilis [7, 12]: 25 mg/L; MIC K. pneumonia [8, 12]: 12.5 mg/L; MIC P. vulgaris [9, 12]: 50 mg/L; MIC C. diversus [11, 12]: 25 mg/L
PRT964 (NIDDCASNPCTFGVCRDGINRYDCVCQPGFTGPLCN; listed as Homo sapiens) |  |  |  |  |  |  |  |  |  | 12.5 |  | 25 | 25 | 50 | 12.5 | 50 | 25 | 25 | 25 | 12.5 | MIC [11]: 50 mg/L
PRT833 (CEANNGGCSHGCSHTSAGPLCTCPRGYELDTDQRTC; listed as Homo sapiens) | 12.5 | 12.5 | 12.5 | 50 | 12.5 | 25 | 25 | 12.5 | 50 | 12.5 | 50 |  |  |  |  |  |  |  |  |  | 
PRT1416 (IEICAADCGGHGVCVGGTCRCEDGWMGAACDQ; listed as Homo sapiens) |  |  |  |  |  |  |  |  |  | 25 |  |  |  |  |  |  |  |  |  |  | MIC against A. hydrophila ([1]; Aeromonas hydrophila, 5×10^5 CFU/mL): 25 mg/L; MIC against M. catarrhalis ([2]; Moraxella catarrhalis, 5×10^5 CFU/mL): 25 mg/L; MIC against P. aeruginosa ([3]; Pseudomonas aeruginosa, 5×10^5 CFU/mL): 25 mg/L; MIC against E. cloacae ([4]; Enterobacter cloacae, 5×10^5 CFU/mL): 25 mg/L; MIC against S. marcescens ([5]; Serratia marcescens, 5×10^5 CFU/mL): 12.5 mg/L; MIC against E. coli BL21 ([6]; E. coli BL21, 5×10^5 CFU/mL): 12.5 mg/L; MIC against P. mirabilis ([7]; Proteus mirabilis, 5×10^5 CFU/mL): 12.5 mg/L; MIC against K. pneumonia ([8]; Klebsiella pneumonia, 5×10^5 CFU/mL): 50 mg/L; MIC against P. vulgaris ([9]; Proteus vulgaris, 5×10^5 CFU/mL): 25 mg/L; MIC against C. diversus ([11]; Citrobacter diversus, 5×10^5 CFU/mL): 12.5 mg/L
PRT973 (DLPDCSPSSCFNGGTCVDGVNSFSCLCRPGYTGAHCQ; listed as Homo sapiens) |  |  |  |  |  |  |  |  |  | 12.5 |  | 25 | 12.5 | 12.5 | 12.5 | 12.5 | 12.5 | 50 | 50 | 25 | MIC [11]: 50 mg/L
